Where “and” joins values, the source holds several entries; their conditions need not be identical. Identical values can stand only once.
Target: T1, TLR4/GABAAR α2 binding (Rattus norvegicus, UniProt Q9QX05)
T1 construct: from tissue; host or cells: ventral tegmental area (VTA) of alcohol-preferring (P) rats
T1 sequence (Q9QX05 26-835): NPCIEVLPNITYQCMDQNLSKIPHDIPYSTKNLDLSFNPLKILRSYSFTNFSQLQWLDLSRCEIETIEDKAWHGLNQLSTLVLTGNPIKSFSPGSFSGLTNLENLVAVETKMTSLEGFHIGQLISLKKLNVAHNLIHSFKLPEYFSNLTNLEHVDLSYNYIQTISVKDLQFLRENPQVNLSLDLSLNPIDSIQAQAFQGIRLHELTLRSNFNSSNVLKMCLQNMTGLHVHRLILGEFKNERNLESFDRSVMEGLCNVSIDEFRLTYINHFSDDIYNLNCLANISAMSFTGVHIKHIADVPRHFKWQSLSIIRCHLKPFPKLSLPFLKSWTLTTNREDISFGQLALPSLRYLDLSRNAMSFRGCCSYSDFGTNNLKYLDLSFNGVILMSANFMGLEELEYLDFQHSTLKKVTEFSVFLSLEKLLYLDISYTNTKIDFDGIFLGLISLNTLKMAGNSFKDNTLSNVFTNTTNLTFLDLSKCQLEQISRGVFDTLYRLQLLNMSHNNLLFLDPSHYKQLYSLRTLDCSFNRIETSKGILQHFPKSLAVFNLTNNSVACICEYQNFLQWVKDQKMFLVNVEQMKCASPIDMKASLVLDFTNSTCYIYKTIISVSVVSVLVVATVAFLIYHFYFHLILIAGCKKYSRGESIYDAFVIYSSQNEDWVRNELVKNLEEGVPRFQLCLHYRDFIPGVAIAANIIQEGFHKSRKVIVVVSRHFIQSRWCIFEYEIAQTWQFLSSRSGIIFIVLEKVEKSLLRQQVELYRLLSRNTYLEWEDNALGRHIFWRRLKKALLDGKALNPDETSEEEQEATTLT
Experiment: TLR4/GABAAR α2 co-immunoprecipitation in P rat VTA
Format: in vivo
Conditions: 15 mg/kg IP, P rats
Procedure: Co-Immunoprecipitation Assay RAW264.7 cells [treated with LPS (1 μg/ml), 3α,5α-THP (1 μM) or pregnenolone (1 μM)] were exposed to chemical protein crosslinking (Poulopoulos et al, 2009) at 24 hrs post-treatment. Briefly, the cells were incubated (20 min on ice) with 1 mM of the cleavable, membrane-permeable crosslinker DSP (Thermo Fisher Scientific, Cat. #PG82081). Rat VTA homogenates were incubated (20 min on ice) with 200 μM of DSP. The crosslinker was quenched in 1 M Tris buffer (pH 7.5) (to a final concentration of 10-20 mM), and the material was centrifuged at 21,000×g for 15 min. Proteins from the cells were extracted with Pierce IP Lysis Buffer (Thermo Fisher Scientific, Cat. #87787) supplemented with protease and phosphatase inhibitor cocktails (Sigma). Proteins from the VTA were extracted with CelLytic MT (dialyzable mild detergent, bicine and 150 mM NaCl; Sigma Aldrich, St. Louis, Mo., USA, Cat. #C3228) supplemented with protease and phosphatase inhibitor cocktails (Sigma) according to the manufacturers instructions. […]

CC(=O)[C@H]1CC[C@H]2[C@@H]3CC[C@H]4C[C@H](O)CC[C@]4(C)[C@H]3CC[C@]12C [3α,5α-THP, (3α,5α)3-hydroxypregnan-20-one]
inhibition of TLR4/GABAAR α2 binding (α2 co-precipitating with TLR4) in VTA: 62.7±9.2% and 82.7±9.2% and ~80%
